Laboratory results from patent US20150306107A1, “SAA Derivative Compound Restores eNOS And Inhibits Oxidative Stress-Induced A Diseases In Hypoxia” (JANSFAT BIOTECHNOLOGY CO., LTD., priority 2014, published 2015).

Assays:
VEGF [1] = assay: Immunohistochemistry of VEGF in pulmonary artery wall after long-term hypoxia; type: in vivo, rat
Method: (§1) For histological analysis, the rat pulmonary right lung sections or pulmonary artery were fixed in 4% formaldehyde for 1 hour at 4° C. After washing with phosphate buffer saline (PBS), they were sent for paraffin-embedded serial-sections. Serial cross-sections 7 μm thick were obtained from the cross-section of each pulmonary artery. Tissue sections were deparaffinized and rehydrated in an ethanol series. After tissue rehydration, endogenous peroxidase activity was quenched with 3% hydrogen peroxide for 30 minutes, and the sections were gently washed in PBS. Non-specific binding was blocked by incubation with 1% nonimmune bovine serum albumin (BSA) in PBS for 30 minutes at room temperature.
(§2) The tissue sections were incubated for 1 hour at room temperature with antibody against VEGF (ab1442, Millipore) or against eNOS (ab5589, Abcam) diluted 1:200 in PBS with 1% BSA. After being washed with PBS, the sections were incubated for 1 hour at room temperature with biotinylated goat antibody against rabbit (Dako, E-0432) and diluted 1:200 in PBS for 30 minutes at room temperature. The reaction was visualized by the addition of 3-3-diaminobenzidine (DAB) in a working solution of DAB substrate kit for peroxidase (vector lab, SK-4100) at room temperature for 5 minutes. The sections were washed in PBS for 10 minutes between each step, and counterstained with haematoxylin. […]

sGCα1 [2] = assay: Western blotting of sGCα1 in lung tissue after long-term hypoxia; type: in vivo, rat; settings: hypoxia 21 days; compared to normoxia control
ROCK II = assay: Western blotting of ROCK II expression in isolated rat pulmonary artery ring, short-term (acute) hypoxia or normoxia; type: cell-based
Method: (§3) In our in vitro short-term experiment, isolated rat pulmonary artery was grown under normoxia (20% O2) or hypoxia (1% O2) at 37° C. for 24 hrs as was previously done (Wu BN, et al. Int J Immunopathol Pharmacol 24:925, 2011). The heart weight and body weight ratio (HW/BW) of the rats treated with one of SPAAX-1, SPAAX-1 RX complex, Sildenafil or Sildenafil RX complex each measured on the 21st hypoxic day. All animal care and the experimental protocols of this study were approved by the Animal Care and Use Committee of the Kaohsiung Medical University. Male Wistar rats (200-250 g), provided by the National Laboratory Animal Breeding and Research Center (Taipei, Taiwan), were housed under constant temperature and controlled illumination. Food and water were available ad libitum.
(§4) Whole right lung tissues of hypoxia-treated and untreated rats were isolated and cut into small strips and placed into an extraction buffer (Tris 10 mM, pH 7.0, NaCl 140 mM, PMSF 2 mM, DTT 5 mM, NP-40 0.5%, pepstatin A 0.05 mM and leupeptin 0.2 mM) for protein extraction, and then centrifuged at 12,500 g for 30 min. To measure the expression levels of the proteins, the total proteins were extracted and Western blotting analysis was performed as described previously (Bivalacqua T J, et al., 2013, TJ PLoSONE 8: e68028. doi:10.1371/journal. pone.0068028). Briefly, the protein extract was boiled to a ratio of 4:1 with a sample buffer (Tris 100 mM, pH 6.8, glycerol 20%, SDS 4% and bromophenol blue 0.2%). Electrophoresis was performed using 10% SDS-polyacrylamide gel (2 hr, 100 V, 40 mA, […] protein per lane). Separated proteins were transferred to PVDF membranes treated with 5% fat-free milk powder to block the nonspecific IgGs (90 min, 100 V) and incubated for one hour with a specific protein antibody. The blot was then incubated with anti-mouse or anti-goat IgG linked to alkaline phosphatase (1:1000) for 1 hr. Immunoreactive bands were visualized using horseradish peroxidase-conjugated secondary antibodies and subsequent electrochemiluminescence (ECL) detection (GE Healthcare Bio-Sciences Corp., Piscataway, N.J., U.S.A.). Mouse or rabbit monoclonal antibody of eNOS (Upstate, N.Y., U.S.A.), sGCα (Sigma-Adrich, CA, U.S.A., sGCβ (Santa Cruz, Calif., U.S.A.), PDE-5A (BD Tansduction, San Jose, Calif., U.S.A.), PKG (Calbiochem, San Diego, Calif., U.S.A.) ROCKII (Upstate, N.Y., U.S.A.), RhoA (Santa Cruze, Calif., U.S.A.) and the loading control protein β-actin (Sigma-Adrich, MO, U.S.A.) were used in our Western blot analysis.
The Western blotting analysis measurements were performed as per lung tissue.

sGCα1 [3] = assay: Western blotting of sGCα1 expression in isolated pulmonary artery, short-term hypoxia; type: cell-based, rat
Method: as §3
Whole right lung tissues of hypoxia-treated and untreated rats were isolated and cut into small strips and placed into an extraction buffer (Tris 10 mM, pH 7.0, NaCl 140 mM, PMSF 2 mM, DTT 5 mM, NP-40 0.5%, pepstatin A 0.05 mM and leupeptin 0.2 mM) for protein extraction, and then centrifuged at 12,500 g for 30 min. To measure the expression levels of the proteins, the total proteins were extracted and Western blotting analysis was performed as described previously (Bivalacqua T J, et al., 2013, TJ PLoSONE 8: e68028. doi:10.1371/journal. pone.0068028). […]

hypoxic rats = assay: Hemodynamics of rats with hypoxic PAH, chronic hypoxia 21 days; type: in vivo, rat; settings: 5 mg/kg/day, p.o.
Text: Int J Immunopathol Pharmacol 24:925, 2011). The heart weight and body weight ratio (HW/BW) of the rats treated with one of […] complex, Sildenafil or Sildenafil RX complex each measured on the 21st hypoxic day. All animal care and the experimental protocols of this study were approved by the Animal Care and Use Committee of the Kaohsiung Medical University. Male Wistar rats (200-250 g), provided by the National Laboratory Animal Breeding and Research Center (Taipei, Taiwan), were housed under constant temperature and controlled illumination. Food and water were available ad libitum. Normoxic rats were housed in room temperature air at normal atmospheric pressure (760 mm Hg). […] After completion of the exposure, tissues were prepared as indicated for contraction measurements, Western blot analysis, RNA extraction, or morphological analysis. […] Their breathing was normal and their body temperature was maintained at 37° C. […] The animals were then sacrificed by the administration of an overdose of urethane.

VEGF [4] = assay: Western blotting of VEGF in lung tissue after long-term hypoxia; type: in vivo, rat; settings: hypoxia 21 days; hypoxia 168.9±24.6%
NOx in lung tissue = settings: 21 days of hypoxia; control group 100%, hypoxia 59.8±3.7%
Method: All the rats were maintained on a 12-h light/12-hr dark cycle at 25±1° C. and were provided with food and water ad libitum. The normoxia group was housed in standard normoxic conditions and the other three treated groups were continuously housed in a hypoxic chamber (10% O2) for 21 days, except for a 30-min interval each day when the chamber was cleaned (FIG. 2). During which, a normoxic gas mixture was prepared from compressed air.
Production of NO, represented by its metabolite nitrate+nitrite (NOx), in lung tissue extracts was determined using the Griess method (Chung H H et al, Br J Pharmacol 160: 971, 2010; Vascular Pharmacology 53: 239, 2010). The three step Greiss test converts nitrate (NO3^−) into nitrite (NO2^−), resulting in a total NO2^− concentration from a standard calibration curve. The lung tissue extracts were homogenized, washed with PBS and incubated in a lysis buffer in addition to a protease inhibitor cocktail (Sigma, St. Louis, Mo.) to obtain the extracts of lung proteins. […] The samples were then incubated (25° C, 10 min) with Griess reagent [N-(1-naphthyl)-ethylenediamine: 0.2% (w/v), sulphanilamide: 2% (w/v), solubilized in double-distilled water: 95% and phosphoric acid: 5% (v/v)] and the absorbance measured at 540 nm. […]

PKG = assay: Western blotting of PKG in lung tissue after long-term hypoxia; type: in vivo, rat; settings: hypoxia 21 days
Method: as §4, with “Mouse or rabbit monoclonal antibody of eNOS (Upstate, N.Y., U.S.A.), sGCα (Sigma-Adrich, CA, U.S.A., sGCβ (Santa Cruz, Calif., U.S.A.), PDE-5A (BD Tansduction, San Jose, Calif., U.S.A.), PKG (Calbiochem, San Diego, Calif., U.S.A.) ROCKII (Upstate, N.Y., U.S.A.), RhoA (Santa Cruze, Calif., U.S.A.) and the loading control protein β-actin (Sigma-Adrich, MO, U.S.A.) were used in our Western blot analysis.” left out

[5] = tested on: reactive oxygen species (ROS) of lung tissues; settings: long-term hypoxia
Method: In our in vivo hypoxic experiments, 10-week old male Wistar rats were equally divided into four groups: a normoxia group, a hypoxia group, a hypoxia+SPAAX-1 or SPAAX-1 RX complex group, and a hypoxia+Sildenafil or Sildenafil RX complex group. All the rats were maintained on a 12-h light/12-hr dark cycle at 25±1° C. and were provided with food and water ad libitum. The normoxia group was housed in standard normoxic conditions and the other three treated groups were continuously housed in a hypoxic chamber (10% O2) for 21 days, except for a 30-min interval each day when the chamber was cleaned (FIG. 2). During which, a normoxic gas mixture was prepared from compressed air.
Pulmonary ROS was measured using 2′-7′-dichloro-fluorescein (H2DCF-DA, Molecular Probe, USA). Briefly, 10 μl of lung tissue extract was diluted 100-fold with cold PBS and labelled with 5 μmol/L 2′-7′-dichlorofluorescein, and the mixture was incubated at 37° C. for 30 minutes and put in a centrifuge (1000 rpm) for 5 min. Fluorescence was measured at 485 nm excitation and 530 nm emission to determine the concentration of H2O2 (FLUOstar Galaxy, Germany).

VEGF [6] = assay: Western blotting of VEGF expression in isolated rat pulmonary artery ring, short-term (acute) hypoxia; type: cell-based; settings: isolated pulmonary artery
In short: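 Isolated rat (male Wistar) pulmonary artery kept under normoxia (20% O2) or hypoxia (1% O2) at 37° C. for 24 hrs. Protein extracted, resolved on 10% SDS-PAGE ([…]), blotted to PVDF, probed with specific antibodies and ECL-detected, β-actin as loading control.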

eNOS = assay: Immunohistochemistry of eNOS in pulmonary artery wall after long-term hypoxia; type: in vivo, rat
Method: as §1, §2

SMILES: Cn1c(=O)c2c(ncn2CCN2CCN(c3ccccc3Cl)CC2)n(C)c1=O.O=C1O[C@H]([C@@H](O)CO)C(O)=C1O [SPAAX-1 ascorbate complex, 7-[2-[4-(2-chlorobenzene)piperazinyl]ethyl]-1,3-dimethylxanthine.ascorbic acid]
- VEGF immunostaining reactivity of pulmonary artery (VEGF [1]): reduced
- sGCα1 expression in lung tissue (sGCα1 [2]): 40.4±8.4%
- expression of ROCK II in isolated hypoxic pulmonary artery (ROCK II; hypoxia for 24 hrs, versus control level in normoxia, hypoxia 180±10.2%): 140±9.0%
- Expression of ROCK II in isolated pulmonary artery ring (ROCK II; normoxia for 24 hrs, 10 μm, versus non-treated controls): 48.2±5.5%
- SGC-a in hypoxia (sGCα1 [3]): neither SPAAX-1 ascorbate complex nor Sildenafil ascorbate complex significantly affected
- BW (body weight) (hypoxic rats): 28.8 ± 7.9 g
- MPAP (mean pulmonary arterial pressure) (hypoxic rats; normoxia 12.9 ± 0.9, hypoxia 26.5 ± 0.6): 16.9±1.1 mmHg
- VEGF expression in lung tissue (VEGF [4]): 120.9±22.2%
- levels of NOx in lung tissue (NOx in lung tissue): 86.3±17.3%
- PKG expression in lung tissue (PKG): 85.0±12.9%
- hypoxia-induced increase of dichlorofluorescein (ROS of lung tissues) [5]: reduced
- VEGF in acute hypoxia (VEGF [6]): inhibited
- eNOS immunostaining reactivity of pulmonary artery (eNOS): restored the decay of eNOS
